Structures can show the parent of a compound that is named as a salt.
Legend:
[1] = Toxicity in the colon 26 mouse study; type: in vivo, CDF-1 female mice
Protocol: (§1) To CDF-1 female mice of 9-week age, 1×10^6 cells of mouse colonic cancer colon 26 were implanted respectively under the skin of the axillary fossa. The medicine was administered to the tail vein three times from six days after the administration when the tumor was detected by finger touch at intervals of four days. On the 17th to 19th days from the implantation,the tumors were enucleated and weighed. The antineoplastic effect is represented by the tumor growth inhibition rate (TGI=(1-T/C)×100) derived from the ratio (T/C) of the average tumor weight (T) of the medicine-administered group to the average tumor weight (C) of the control group.

[2] = tested on: mouse colonic cancer colon 26; assay: Antineoplastic effect against mouse colonic cancer colon 26 (Experimental Example 2); type: in vivo, CDF-1 female mice; conditions: for TGI (tumor growth inhibition rate): colon 26, tail vein, 3 times at 4-day intervals, day 17-19; for antineoplastic activity against the growth of advanced colonic cancer 26 tumor: mice, intravenous administration
Protocol: as §1

[3] = tested on: sarcoma 180; assay: Antineoplastic effect against mouse sarcoma 180 tumor (Experimental Example 1); type: in vivo, ICR female mice; conditions: sarcoma 180, tail vein, 3 times at 4-day intervals, day 14
Protocol: To ICR female mice of 5-week age, 5×10^6 cells of sarcoma 180 were implanted respectively under the skin of the axillary fossa. The medicine was administered to the tail vein three times from the day next to the administration at intervals of four days. After 14 days from the implantation, the tumors were enucleated and weighed. The antineoplastic effect is represented by the tumor growth inhibition rate (TGI=(1-T/C)×100) derived from the ratio (T/C) of the average tumor weight (T) of the medicine-administered group to the average tumor weight (C) of the control group.

[4] = cited from earlier work
[5] = tested on: nucleic acid synthesis; conditions: background; cited from earlier work
[6] = target: acetylcholine esterase; assay: Inhibition of acetylcholine esterase reaction (Experimental Example 3); type: biochemical
Protocol: The absorbance was measured at 412 nm. The reaction rate and the acetylthiocholine iodide concentration was plotted according to Lineweaver-Burk method to obtain Vmax, and Km. Then, the inhibition constant (Ki) was calculated from the inhibitor concentration.

Chain of acetylcholine esterase (P22303 32-614): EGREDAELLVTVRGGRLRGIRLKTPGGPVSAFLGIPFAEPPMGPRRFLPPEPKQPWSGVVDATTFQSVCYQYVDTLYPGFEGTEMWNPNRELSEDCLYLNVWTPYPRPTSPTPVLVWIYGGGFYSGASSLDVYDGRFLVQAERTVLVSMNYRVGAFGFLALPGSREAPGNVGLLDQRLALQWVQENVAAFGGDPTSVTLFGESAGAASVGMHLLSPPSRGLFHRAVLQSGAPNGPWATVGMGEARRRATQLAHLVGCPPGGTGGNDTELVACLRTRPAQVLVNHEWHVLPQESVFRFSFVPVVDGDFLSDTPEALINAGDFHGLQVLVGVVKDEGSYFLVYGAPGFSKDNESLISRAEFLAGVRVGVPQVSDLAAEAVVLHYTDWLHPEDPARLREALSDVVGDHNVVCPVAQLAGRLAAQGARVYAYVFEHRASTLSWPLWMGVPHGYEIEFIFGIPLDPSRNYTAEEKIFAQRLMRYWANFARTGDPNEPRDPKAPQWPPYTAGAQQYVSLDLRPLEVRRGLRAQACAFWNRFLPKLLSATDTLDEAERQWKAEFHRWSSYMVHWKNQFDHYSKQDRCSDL

Structure (SMILES): CCc1c2c(nc3ccc(OC(=O)N4CCC(N5CCCCC5)CC4)cc13)-c1cc3c(c(=O)n1C2)COC(=O)[C@]3(O)CC [Irinotecan hydrochloride, irinotecan hydrochloride]
- Toxicity ([1]; colon 26 mice, tail vein, total dose 120 mg/kg): Toxic
- TGI (tumor growth inhibition rate) ([2]; total dose 30 mg/kg): 8%
- TGI (tumor growth inhibition rate) ([2]; total dose 60 mg/kg): 28%
- TGI (tumor growth inhibition rate) ([2]; total dose 120 mg/kg): 34%
- antineoplastic activity against the growth of advanced colonic cancer 26 tumor [2]: not inhibited
- TGI (tumor growth inhibition rate) ([3]; total dose 30 mg/kg): 44%
- TGI (tumor growth inhibition rate) ([3]; total dose 60 mg/kg): 75%
- TGI (tumor growth inhibition rate) ([3]; total dose 120 mg/kg): 74%

Structure (SMILES): CC[C@@]1(OC(=O)CN)C(=O)OCc2c1cc1n(c2=O)Cc2cc3cc4c(cc3nc2-1)OCO4.Cl [Compound 1, 10,11-Methylenedioxy-20-O-glycylcamptothecin hydrochloride]
- Toxicity ([1]; at a dose of as low as 20 mg/kg): toxic
- Toxicity ([1]; colon 26 mice, tail vein, total dose 60 mg/kg): Toxic
- TGI (tumor growth inhibition rate) ([2]; total dose 7.5 mg/kg): 21%
- TGI (tumor growth inhibition rate) ([2]; total dose 15 mg/kg): 22%
- TGI (tumor growth inhibition rate) ([2]; total dose 30 mg/kg): 44%
- antineoplastic activity against the growth of advanced colonic cancer 26 tumor [2]: not inhibited

Structure (SMILES): CC[C@@]1(O)C(=O)OCc2c1cc1n(c2=O)Cc2cc3ccccc3nc2-1 [camptothecin, Camptothecin]
- clinical toxicity ([4]; clinical tests in the United States): discontinued because of its toxicity
- antineoplastic activity by inhibiting nucleic acid synthesis [5]: exhibit antineoplastic activity by inhibiting nucleic acid synthesis

Structure (SMILES): CCC1(OC(=O)CN)C(=O)OCc2c1cc1n(c2=O)Cc2cc3cc4c(cc3nc2-1)OCO4 (stereo not drawn) [10,11-methylenedioxy-20-O-glycylcamptothecin]
- toxicity / side effects ([4]; known camptothecin derivatives, background): highly toxic

Structure (SMILES): CCOc1ccc2nc3c(c(CC)c2c1)Cn1c-3cc2c(c1=O)COC(=O)C2(CCF)OC(=O)CN (stereo not drawn) [Example 1, 4-[(aminomethylcarbonyl)oxy]-9-ethoxy-11-ethyl-4-(2-fluoroethyl)-1H-pyrano[3',4':6,7]indolidino[1,2-b]quinoline-3,14(4H,12H)-dione hydrochloride]
- Ki [6]: 20 to 40 µM
- TGI (tumor growth inhibition rate) ([2]; total dose 30 mg/kg): 28%
- TGI (tumor growth inhibition rate) ([2]; total dose 60 mg/kg): 59%
- TGI (tumor growth inhibition rate) ([2]; total dose 120 mg/kg): 81%
- TGI (tumor growth inhibition rate) ([2]; total dose 180 mg/kg): 82%
- TGI (tumor growth inhibition rate) ([3]; total dose 60 mg/kg): 83%
- TGI (tumor growth inhibition rate) ([3]; total dose 120 mg/kg): 91%

Source: patent US5942518A, “Water-soluble fluoroethylcamptothecin derivative and process for production thereof” (priority 1995, dated 1999)
